Experimental data taken from publication PMC2804440 (Neuron, 2009).

Assays:
[1] = target: T1, LGC-55 (Caenorhabditis elegans, UniProt G5EEC1); assay: two-electrode voltage clamp, Xenopus oocytes; type: cell-based
T1 sequence (G5EEC1 17-538): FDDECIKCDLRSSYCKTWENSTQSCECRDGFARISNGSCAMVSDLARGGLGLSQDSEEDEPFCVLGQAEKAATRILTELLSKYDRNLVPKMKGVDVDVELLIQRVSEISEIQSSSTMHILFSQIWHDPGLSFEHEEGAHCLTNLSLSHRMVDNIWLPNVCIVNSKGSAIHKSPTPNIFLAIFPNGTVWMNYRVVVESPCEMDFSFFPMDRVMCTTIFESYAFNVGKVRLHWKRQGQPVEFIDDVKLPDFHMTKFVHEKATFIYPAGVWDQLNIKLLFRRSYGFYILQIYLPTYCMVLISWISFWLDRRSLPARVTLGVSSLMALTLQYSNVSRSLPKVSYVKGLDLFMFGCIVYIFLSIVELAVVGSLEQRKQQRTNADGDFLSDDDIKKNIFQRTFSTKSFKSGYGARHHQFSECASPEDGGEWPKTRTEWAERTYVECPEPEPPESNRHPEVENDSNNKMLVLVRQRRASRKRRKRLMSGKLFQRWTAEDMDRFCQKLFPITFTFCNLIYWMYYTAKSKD

[2] = target: T1, LGC-55; assay: two-electrode voltage clamp, Xenopus oocytes; type: cell-based; details: weak agonist; ND96, -60 mV, 10 s application, 22-24 °C

| SMILES | EC50 [1] | small inward currents at millimolar concentrations [2] |
| --- | --- | --- |
| NCCc1ccc(O)c(O)c1 [dopamine] | 158.8 ± 1.1 µM | – |
| NC[C@H](O)c1ccc(O)cc1 [octopamine] | 215.2 ± 1.1 µM | – |
| NCCc1c[nH]c2ccc(O)cc12 [serotonin] | – | serotonin only elicited small LGC-55-dependent inward currents at millimolar concentrations |
| NCCc1ccc(O)cc1 [tyramine] | 12.1 ± 1.2 µM | – |
